These results are taken from ChEMBL document CHEMBL4813957, “Antitubercular properties of thiazolidin-4-ones - A review” (Eur J Med Chem, 2021).

For data set [1], the system named is Mycobacterium tuberculosis. As to the kind of experiment: Antimycobacterial activity against Mycobacterium tuberculosis RCMB 010126 measured after 7 days by microplate alamar blue assay. Format: functional. To be noted: RCMB 010126, 168 h, time 7 day. For orientation: Alamar Blue is a resazurin reagent that responds to reducing activity.
Data set [2] in a line: Selectivity ratio of IC50 for human WI-38 cells to MIC for Mycobacterium tuberculosis RCMB 010126. The data set is classed as toxicity.
The test system of the next data set is WI-38. As to the kind of experiment: Cytotoxicity against human WI-38 cells by MTT assay. The data set is classed as cell-based. In general terms: Formazan colour is commonly taken as a measure of viable cells.
Data set [3] in a line: Selectivity ratio of CC50 for African green monkey Vero E6 cells to IC90 for Mycobacterium tuberculosis H37Rv 27294. Format: toxicity, Vero C1008.
A short description of data set [4]: Cytotoxicity against African green monkey Vero cells after 72 hrs by cell titer glo luminescent cell viability assay. The data set is classed as cell-based. To be noted: chlorocebus sabaeus. (In general: Cellular ATP, detected with luciferase, serves as a proxy for viable cell number.)
Data set [5] concerns Mycobacterium tuberculosis. As to the kind of experiment: Antimycobacterial activity against Mycobacterium tuberculosis H37Rv 27294 by microplate alamar blue assay. Format: functional.
For data set [6], the system named is Mycobacterium tuberculosis. The data set can be described thus: Antimycobacterial activity against Mycobacterium tuberculosis ATCC 27286 assessed as zone of inhibition at 20 ug/ml. The data set is classed as functional. Conditions: read-out: IZ.
The target of data set [7] is T1, Enoyl-[acyl-carrier-protein] reductase [NADH] (Mycobacterium tuberculosis, UniProt P9WGR1).
T1 sequence (P9WGR1 whole entry): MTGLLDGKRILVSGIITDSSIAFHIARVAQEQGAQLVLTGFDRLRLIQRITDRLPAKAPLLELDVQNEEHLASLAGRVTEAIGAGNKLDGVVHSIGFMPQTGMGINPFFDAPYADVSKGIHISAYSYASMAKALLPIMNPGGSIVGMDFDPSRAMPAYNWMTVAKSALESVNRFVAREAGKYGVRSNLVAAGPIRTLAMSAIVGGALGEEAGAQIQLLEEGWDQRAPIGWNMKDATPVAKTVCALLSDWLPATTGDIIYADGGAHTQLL
As to the kind of experiment: Inhibition of Mycobacterium tuberculosis InhA.

The test system of data set [8] is Mycobacterium tuberculosis. As to the kind of experiment: Antimycobacterial activity against Mycobacterium tuberculosis H37Ra ATCC 25177 by XTT Reduction Menadione assay. The data set is classed as functional.
Data set [9] relates to Mycobacterium tuberculosis. As to the kind of experiment: Antimycobacterial activity against Mycobacterium tuberculosis H37Rv measured after 12 to 28 days by Lowenstein-Jensen method. Format: functional. Conditions: time 12-28 day.
The subject of data set [10] is Mycobacterium tuberculosis. As to the kind of experiment: Antimycobacterial activity against Mycobacterium tuberculosis H37Rv by Lowenstein-Jensen agar method. Format: functional.
Data set [11] deals with Mycobacterium tuberculosis. The data set can be described thus: Antimycobacterial activity against Mycobacterium tuberculosis H37Rv ATCC27294 measured after 28 days by two-fold serial dilution method. Format: functional. To be noted: H37Rv ATCC 27294, 672 h, time 28 day.
Data set [12] concerns Mycobacterium tuberculosis. The data set can be described thus: Antimycobacterial activity against Mycobacterium tuberculosis H37Rv ATCC 27294 incubated for 5 days by microplate alamar blue assay. The data set is classed as functional. Conditions: H37Rv ATCC 27294, 120 h, time 5 day.
In data set [13] the test system is Mycobacterium tuberculosis. As to the kind of experiment: Antimycobacterial activity against Mycobacterium tuberculosis H37Rv by filter paper disc diffusion method. Format: functional.

Each structure is given as a SMILES string. In brackets after ≈: the same amount, converted by molar mass.

In general, MIC refers to the lowest concentration found to suppress growth. In general, IC50 refers to the midpoint of a concentration-inhibition curve. With `CCOC(=O)c1sc(/N=C2\NC(=O)/C(=C/c3cccnc3)S2)nc1C`, in data set [1], inhibition of growth (MIC) required 1.56 µg/mL (≈ 4.17 µM). The selectivity ratio in [2] came out at 52. Moreover, the IC50 with WI-38 was found to be 81.3 µg/mL (≈ 217 µM).

As usually defined, the CC50 is the concentration giving 50% cytotoxicity. As usually defined, the IC90 is the concentration at which the effect reaches the 90% level. Turning to `CCN1C(=O)/C(=C/c2ccc(OC)cc2)S/C1=N/NC(=O)c1ccncc1`, the selectivity ratio in data set [3] is 18.1. In data set [4], this molecule gave a cytotoxic concentration (CC50) at 72 h of 36.9 µg/mL (≈ 96.4 µM). The molecule also displayed a 90% effect concentration (IC90) in [5] of 2.95 µg/mL (≈ 7.72 µM).

The Ki is a measure of affinity in units of concentration, obtained from inhibition or displacement. Take `O=C(NN1C(=O)CSC1c1c[nH]c2ccccc12)c1ccncc1` (centres undefined): the zone of inhibition at 20 µg/mL in data set [6] was 35 mm. For the same molecule, the inhibitory constant (Ki) in data set [7] is 641 nM.

Take `O=C1NC(=S)S/C1=C\c1ccc([N+](=O)[O-])cc1`: the 90% effect concentration (IC90) in data set [8] came out at 22.3 µg/mL (≈ 83.7 µM).

In the case of `CO[C@H]1/C=C/O[C@@]2(C)Oc3c(C)c(O)c4c(O)c(c(/C=N/N5CCN(C)CC5)c(O)c4c3C2=O)NC(=O)/C(C)=C\C=C\[C@H](C)[C@H](O)[C@@H](C)[C@@H](O)[C@@H](C)[C@H](OC(C)=O)[C@@H]1C` [RIFAMPIN], the minimal inhibitory concentration (MIC) in data set [9] was 40 µg/mL (≈ 48.6 µM); in data set [10], 40 µg/mL (≈ 48.6 µM); in data set [11], 0.24 µM (≈ 0.198 µg/mL); in data set [12] it was 1 µg/mL (≈ 1.22 µM); in [13] it was 2.5 µg/mL (≈ 3.04 µM).
